The record followed here is PubChem BioAssay AID588822 (The Scripps Research Institute Molecular Screening Center, 2011).

The target in this experiment is Nuclear receptor subfamily 0 group B member 1 (Homo sapiens) (UniProt P51843). The experiment in a line: DAX1 (NR0B1) repression inhibitors, late-stage follow-up, cell-based, luminescence, HEK293, Gal4-DAX1 reporter, dose response (AID 588822). Particulars: HEK293 Gal4-DAX1 luciferase reporter. (In general: In a reporter assay the amount or activity of a reporter protein is the signal.)

Structures are written as SMILES. Activity calls are given as the source filed them.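 Rule for the calls: active = half-maximal inhibitory concentration of 10 µM or lower; inactive = the rest.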 Some results are limits rather than exact numbers.

Sequence of Nuclear receptor subfamily 0 group B member 1 (Homo sapiens) (P51843 207-470 limits assumed): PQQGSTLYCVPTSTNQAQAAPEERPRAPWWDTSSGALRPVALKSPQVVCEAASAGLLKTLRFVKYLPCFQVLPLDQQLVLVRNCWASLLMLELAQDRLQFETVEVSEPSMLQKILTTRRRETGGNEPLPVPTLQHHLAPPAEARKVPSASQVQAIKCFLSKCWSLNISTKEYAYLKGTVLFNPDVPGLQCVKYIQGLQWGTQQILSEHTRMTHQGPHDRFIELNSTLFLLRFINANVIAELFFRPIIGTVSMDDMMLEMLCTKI

Turning to `O=C(Cc1cccs1)Nc1ccc2c(c1)OCO2`, the IC50 (as a rule, the concentration needed to halve the response being measured) is > 69.5 µM (inactive).

Turning to `O=C(Nc1ccc2c(c1)OCCO2)c1ccc2ccccc2c1`, the IC50 was > 69.5 µM (inactive).

Consider `Cn1c(=O)n(C)c2cc(C(=O)Nc3ccc4c(c3)OCCO4)ccc21`, for which the IC50 was > 69.5 µM (inactive).

Consider `Cc1occc1C(=O)Nc1ccc2c(c1)OCO2`, for which the IC50 was > 69.5 µM (inactive).

Turning to `COc1ccc(OC)c(C(C)NC(=O)c2ccc3c(c2)OCCO3)c1` (centres undefined), the IC50 is > 69.5 µM (inactive).

Take `O=C(Nc1ccc2c(c1)OCO2)c1ccc2ccccc2c1`: the IC50 is > 69.5 µM (inactive).

As to `O=C(Nc1ccc2c(c1)OCO2)c1cccs1`, the IC50 was > 69.5 µM (inactive).

On to `CN(C)c1cccc(C(=O)Nc2ccc3c(c2)OCCO3)c1`, for which the IC50 was > 69.5 µM (inactive).

With `COc1ccc(OC)c(C(C)NC(=O)c2c(F)cccc2Cl)c1` (centres undefined), the IC50 was > 69.5 µM (inactive).

In the case of `CSc1ccccc1C(=O)Nc1ccc2c(c1)OCO2`, the IC50 was > 69.5 µM (inactive).

Regarding `COc1cccc(C(=O)Nc2ccc3c(c2)OCCO3)c1`, the IC50 was > 69.5 µM (inactive).

On to `COc1ccc(OC)c(C(C)NC(=O)c2ccccc2C)c1` (centres undefined), for which the IC50 is > 69.5 µM (inactive).

For the compound `CSc1ccccc1C(=O)Nc1ccc2c(c1)OCCO2`, the IC50 was > 69.5 µM (inactive).

On to `O=C(Nc1ccc2c(c1)OCO2)c1ccc(C2SCC(=O)N2Cc2ccccc2)cc1` (centres undefined), for which the IC50 was > 69.5 µM (inactive).

With `Cc1cc(C(=O)Nc2ccc3c(c2)OCO3)cs1`, the IC50 is > 69.5 µM (inactive).

Regarding `O=C(Nc1ccc2c(c1)OCO2)c1ccc(C2SCC(=O)N2Cc2ccco2)cc1` (centres undefined), the IC50 was > 69.5 µM (inactive).

`COc1ccc(OC)c(C(C)NC(=O)c2ccccc2Cl)c1` (centres undefined): the IC50 is > 69.5 µM (inactive).

In the case of `COc1ccc(OC)c(C(C)NC(=O)c2cccc3ccccc23)c1` (centres undefined), the IC50 was > 69.5 µM (inactive).

For `COc1ccc(OC)c(C(C)NC(=O)c2ccccc2)c1` (centres undefined), the IC50 is > 69.5 µM (inactive).

In the case of `COc1ccc(OC)c(C(C)NC(=O)c2cccc(F)c2)c1` (centres undefined), the IC50 is > 69.5 µM (inactive).

As for `COc1ccc(OC)c(C(C)NC(=O)c2cccc(C)c2)c1` (centres undefined), the IC50 is > 69.5 µM (inactive).

`COc1ccc(OC)c(C(C)NC(=O)c2ccc(C(C)(C)C)cc2)c1` (centres undefined): the IC50 is > 69.5 µM (inactive).

In the case of `Cn1c(=O)n(C)c2cc(C(=O)Nc3ccc4c(c3)OCO4)ccc21`, the IC50 is > 69.5 µM (inactive).

Consider `COc1cccc(C(=O)Nc2ccc3c(c2)OCO3)c1`, for which the IC50 is > 69.5 µM (inactive).

For the compound `COc1ccc(OC)c(C(C)NC(=O)c2ccccc2F)c1` (centres undefined), the IC50 was > 69.5 µM (inactive).

Regarding `COc1ccc(OC)c(C(C)NC(=O)c2ccc(Cl)cc2)c1` (centres undefined), the IC50 was > 69.5 µM (inactive).

With `COc1ccc(OC)c(C(C)NC(=O)c2ccc(F)cc2)c1` (centres undefined), the IC50 was > 69.5 µM (inactive).

As for `COc1ccc(OC)c(C(C)NC(=O)c2ccc(C)cc2)c1` (centres undefined), the IC50 is > 69.5 µM (inactive).

For `COc1cccc(C(=O)NC(C)c2cc(OC)ccc2OC)c1` (centres undefined), the IC50 was > 69.5 µM (inactive).
